Patent US11891369B2, “Compounds for binding proprotein convertase subtilisin/kexin type 9” (SRX Cardio, LLC, priority 2016, dated 2024)

How the values were obtained:
PCSK9 [1] = target: T1, PCSK9 (Homo sapiens, UniProt Q8NBP7); assay: Cellular DiI-LDL uptake analysis (LDL-uptake assay); format: cell-based; settings: for DiI-LDL uptake (% of control) at 20 µM: read-out: LDL-uptake % of control; for remaining activity at 20 µM: percentage uptake of DiI-LDL over the control at 20 uM concentration
T1 construct: host or cells: added to HepG2, HuH7, FL83B or shPCSK9 knockdown lines
Description: Cells, such as HepG2, HuH7, FL83B, or a cell line transfected with a short-hairpin PCSK9 knockdown sequence such as HepG2/shPCSK9, HuH7/shPCSK9, or FL83B/shPCSK9 are plated and cultured at 37° C. for 12-24 h. Culture media is removed and replaced with fresh lipoprotein-depleted culture media supplemented with 5 ug/mL of DiI-LDL (Kalen Biomedical) or lipoprotein-depleted culture media supplemented with 5 ug/mL of DiI-LDL plus a predetermined concentration of recombinant PCSK9, for example a 10 nM final concentration of PCSK9. Lipoprotein-depleted culture media can be composed of DMEM (Invitrogen) with 10% lipoprotein-depleted fetal bovine serum (Kalen Biomedical) and supplemented with penicillin-streptomycin (Life Technologies). Cells are dosed with small molecule test compounds at doses ranging from 0 nM to 100 uM.
The lipoprotein-depleted media is removed and cells rinsed three times with phosphate buffered saline. A final volume of phosphate buffered saline is added back to the wells. The DiI fluorescence is measured with a plate reader using an exciting wavelength of 550 nm and the resulting emission at 590 nm is measured. The Hoechst stain fluorescence is measured with a plate reader using an exciting wavelength of 355 nm and the resulting emission at 460 nm is measured.
Cells are analyzed by for both Hoechst stain (DNA content) and DiI-LDL fluorescence.

PCSK9 [2] = target: T1, PCSK9; assay: LDLR flow cytometric analysis (LDL-R assay); format: cell-based; settings: percentage recovery in the LDL-R assay at 20 uM concentration
Excerpt: Cells, such as HepG2, HuH7, FL83B, or a cell line transfected with a short-hairpin PCSK9 knockdown sequence (e.g., HepG2/shPCSK9, HuH7/shPCSK9) can be cultured following routine procedures, such as those described by Benjannet et al., “Effects of the prosegment and pH on the activity of PCSK9: evidence for additional processing events” J Biol Chem. 285(52): 40965-40978 (2010), which is hereby incorporated by reference in its entirety.
LDLR levels can be measured using flow cytometry or fluorescence activated cell sorting (FACS) using protocols adapted from Benjannet et al., “Effects of the prosegment and pH on the activity of PCSK9: evidence for additional processing events” J Biol Chem. 285(52): 40965-40978 (2010) and “Composition and Methods of Use of Small Molecules as Binding Ligands for the Modulation of Proprotein Convertase Subtilisin/Kexin Type 9 (PCSK9) Protein Activity” (WO2016029037), which are incorporated by reference in their entirety.
Cells, such as HepG2, HuH7, FL83B, or a cell line transfected with a short-hairpin PCSK9 knockdown sequence such as HepG2/shPCSK9, HuH7/shPCSK9, or FL83B/shPCSK9 are cultured in media composed of complete, high glucose DMEM (Invitrogen) with 10% fetal bovine serum (Life Technologies), supplemented with penicillin-streptomycin (Life Technologies). Cells are plated in a 24-well plate, at 125 k cells/well, and cultured at 37° C. for 12-24 h. Culture media is removed and replaced with fresh culture media or culture media plus a predetermined amount of recombinant PCSK9 (final 5 ug/ml). Wells evaluating test compounds are dosed with concentrations ranging from 0 nM to 100 uM.
Following an incubation period of 4-6 hours at 37° C., the media is removed and the cells are rinsed by adding 0.5 ml of complete D-PBS (i.e., Dulbecco's phosphate buffered saline (D-PBS, Life Technologies) supplemented with 0.5% bovine serum albumin (BSA, Sigma) and 1 g/L glucose (Sigma)). The wash media is carefully aspirated, and cells are released from the plate using 200 uls of TrypLE Express (Life Technologies) by incubating for 5-10 minutes at 37° C. The TyrpLE-Cell suspension is inactivated by adding 100 uls of Fetal Bovine Serum, transferred to a v-bottom plate, and centrifuged at 250× gravity for 5 minutes. Following centrifugation, the supernatant is aspirated and the cell pellet is resuspended in 100 uL of complete D-PBS, and centrifuged at 250× gravity for 5 minutes. Following centrifugation, the supernatant is aspirated and the cell pellet is resuspended in 100 uls of antibody staining solution (600 uls of anti-LDLr-PE in complete D-PBS) and incubated on ice, protected from light, for 30 minutes. The cells are then pelleted by centrifugation, resuspended in 100 uL of 4′,6-Diamidino-2-phenylindole (DAPI, Cayman Chemical) or 7-aminoactinomycin D (7AAD, Life Technologies) staining solution to measure cell viability
Cells are analyzed for both cell viability marker (dead cells) and LDLR in live cells using a flow cytometer per the manufacturer's operating manual. Cells incubated with small molecule compounds that are inhibitors of PCSK9 will be expected to show increased amounts of LDLR, relative to control (no compound) specimens, and cells incubated with small molecule compounds that are activators of PCSK9 will be expected to show decreased amounts of LDLR relative to control (no compound) specimens.

T1 sequence (Q8NBP7 153-692): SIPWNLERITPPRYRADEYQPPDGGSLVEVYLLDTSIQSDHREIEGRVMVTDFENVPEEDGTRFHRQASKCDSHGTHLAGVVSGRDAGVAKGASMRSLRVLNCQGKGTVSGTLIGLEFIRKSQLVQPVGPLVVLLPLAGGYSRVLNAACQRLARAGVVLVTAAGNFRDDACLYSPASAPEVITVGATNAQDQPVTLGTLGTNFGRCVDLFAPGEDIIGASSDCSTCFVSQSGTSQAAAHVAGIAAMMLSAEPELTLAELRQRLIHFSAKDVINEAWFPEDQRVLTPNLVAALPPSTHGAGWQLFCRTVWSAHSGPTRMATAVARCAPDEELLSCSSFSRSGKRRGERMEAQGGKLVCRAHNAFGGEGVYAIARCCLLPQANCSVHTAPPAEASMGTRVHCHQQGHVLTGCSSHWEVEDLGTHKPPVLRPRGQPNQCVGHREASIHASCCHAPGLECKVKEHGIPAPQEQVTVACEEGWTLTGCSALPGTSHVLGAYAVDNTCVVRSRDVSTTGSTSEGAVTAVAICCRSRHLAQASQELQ

SMILES | DiI-LDL uptake (% of control) at 20 µM (PCSK9 [1]) | LDL-R % Recovered (PCSK9 [2]) | remaining activity at 20 µM (PCSK9 [1])
FC(F)(F)c1ccc(N2CCNCC2)c2ccccc12 [compound 1, 1-(4-(Trifluoromethyl)naphthalen-1-yl)piperazine] | > 150% | +++ (>30% recovery) | 
c1ccc2c(N3CCNCC3)ccc(OC3CCNCC3)c2c1 [compound 4, 1-(4-(Piperidin-4-yloxy)naphthalen-1-yl)piperazine] |  | + (0-10% recovery) | > 150%
c1ccc2c(N3CCNCC3)ccc(NC3CCNCC3)c2c1 [compound 5, N-(4-(Piperazin-1-yl)naphthalen-1-yl)piperidin-4-amine] |  | ++ (10-30% recovery) | < 100%
O=S(=O)(c1ccc(N2CCNCC2)c2ccccc12)C1CCNCC1 [compound 7, 1-(4-(Piperidin-4-ylsulfonyl)naphthalen-1-yl)piperazine] |  | + (0-10% recovery) | > 150%
O=C(c1ccc(N2CCNCC2)c2ccccc12)N1CCNCC1 [compound 8, Piperazin-1-yl(4-(piperazin-1-yl)naphthalen-1-yl)methanone] |  | + (0-10% recovery) | > 150%
NC(=O)N1CCN(c2cccc3ccccc23)CC1 [compound 11, 4-(Naphthalen-1-yl)piperazine-1-carboxamide] | < 100% | + (0-10% recovery) | 
O=S(=O)(c1ccc(C2CCNCC2)c2ccccc12)C1CCNCC1 [compound 23, 4-((4-(Piperidin-4-yl)naphthalen-1-yl)sulfonyl)piperidine] |  | + (0-10% recovery) | > 150%
Cc1ccc(C2CCNCC2)c2ccccc12 [compound 43, 4-(4-Methylnaphthalen-1-yl)piperidine] |  | ++ (10-30% recovery) | > 150%
O=S(=O)(Nc1ccccc1)c1ccc(N2CCNCC2)c2ccccc12 [compound 73, N-phenyl-4-(piperazin-1-yl)naphthalene-1-sulfonamide] |  | + (0-10% recovery) | 100 to 150%
c1ccc2c(N3CCNCC3)cccc2c1 [compound 107, 1-(naphthalen-1-yl)piperazine] | > 150% | ++ (10-30% recovery) | 
